Results on 1 compound are retold here after PMC4942054 (PLoS ONE, 2016).

The assay has as its target T1, dihydrofolate reductase (DHFR) from chicken liver (Gallus gallus, UniProt P00378).
T1 sequence (P00378 1-189): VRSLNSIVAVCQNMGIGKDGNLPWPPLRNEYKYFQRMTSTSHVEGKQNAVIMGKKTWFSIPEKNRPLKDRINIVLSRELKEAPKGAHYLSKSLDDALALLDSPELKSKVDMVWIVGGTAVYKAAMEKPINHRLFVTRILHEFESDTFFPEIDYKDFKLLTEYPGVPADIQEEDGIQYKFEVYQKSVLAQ
Put plainly: DHF-dependent NADPH oxidation, absorbance at […] nm. The settings on record: 0.187 mM DHF, 0.137 mM NADPH, 0.5 M KCl, 0.05 M Tris-HCl pH 7.5, 25°C, 40 min; partially purified enzyme 35 μg/ml; sample released from PEG40 conjugate at pH 3.0, equipotent to MTX-hexamethylenamine. Type of assay: biochemical.

`CN(Cc1cnc2nc(N)nc(N)c2n1)c1ccc(C(=O)N[C@@H](CCC(=O)NCCCCCCN)C(=O)O)cc1` [MTX-hexamethylenamine]: the IC50 (in general, the midpoint of a concentration-inhibition curve) amounted to 0.19 ± 0.007 µM.
